# Data reported in US8198273B2, “Compounds and methods for kinase modulation, and indications therefor” (Plexxikon Inc., priority 2009, dated 2012).
# How the values were obtained:
# B-Raf = B-Raf (Homo sapiens, UniProt P15056); assay: B-Raf biochemical kinase inhibition (AlphaScreen, biotin-MEK1 substrate); conditions: 100 μM ATP
# Method in brief: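 IC50 derived from AlphaScreen signal plotted against compound concentration. Final ATP 100 μM; 3 h incubation at room temperature. Eight-point 3-fold dilution series prepared from a 0.1 mM DMSO stock.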
# [1] = system: COLO205 colon adenocarcinoma cells (B-Raf V600E); assay: COLO205 cell growth inhibition (ATPlite); type: cell-based; conditions: Homo sapiens, COLO 205, 72 h; COLO205, 3 days incubation
# Method in brief: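 Cells plated overnight, then exposed 3 days at 37° C to 8-point 1:3 compound dilutions topping at 10 μM final. Viability read as ATPlite luminescence, proportional to cell number; IC50 from luminescence versus concentration.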
# [2] = Relative solubility by turbidity in aqueous buffers of varying pH; type: physicochemical; conditions: for turbidity threshold (L, M, H) 7.4: HEPES pH 7.4; for turbidity threshold (L, M, H) 4.5: SIF pH 4.5; for turbidity threshold (L, M, H) 6.8: SIF pH 6.8; for turbidity threshold (L, M, H) 1.4: buffer pH 1.4 (SGF)
# Method in brief: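 Turbidity endpoint: concentration where optical density at 490, 535 and 650 nm exceeds 0.01, three-wavelength average used. Buffers at pH 1.5, 4.5, 6.8 and 7.4; DMSO serial dilutions of 25 mM stock spiked 1 μL into 99 μL buffer. Low <31.3, moderate 31.3–250, high >250 μM.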
# Sequence of B-Raf (P15056 whole entry): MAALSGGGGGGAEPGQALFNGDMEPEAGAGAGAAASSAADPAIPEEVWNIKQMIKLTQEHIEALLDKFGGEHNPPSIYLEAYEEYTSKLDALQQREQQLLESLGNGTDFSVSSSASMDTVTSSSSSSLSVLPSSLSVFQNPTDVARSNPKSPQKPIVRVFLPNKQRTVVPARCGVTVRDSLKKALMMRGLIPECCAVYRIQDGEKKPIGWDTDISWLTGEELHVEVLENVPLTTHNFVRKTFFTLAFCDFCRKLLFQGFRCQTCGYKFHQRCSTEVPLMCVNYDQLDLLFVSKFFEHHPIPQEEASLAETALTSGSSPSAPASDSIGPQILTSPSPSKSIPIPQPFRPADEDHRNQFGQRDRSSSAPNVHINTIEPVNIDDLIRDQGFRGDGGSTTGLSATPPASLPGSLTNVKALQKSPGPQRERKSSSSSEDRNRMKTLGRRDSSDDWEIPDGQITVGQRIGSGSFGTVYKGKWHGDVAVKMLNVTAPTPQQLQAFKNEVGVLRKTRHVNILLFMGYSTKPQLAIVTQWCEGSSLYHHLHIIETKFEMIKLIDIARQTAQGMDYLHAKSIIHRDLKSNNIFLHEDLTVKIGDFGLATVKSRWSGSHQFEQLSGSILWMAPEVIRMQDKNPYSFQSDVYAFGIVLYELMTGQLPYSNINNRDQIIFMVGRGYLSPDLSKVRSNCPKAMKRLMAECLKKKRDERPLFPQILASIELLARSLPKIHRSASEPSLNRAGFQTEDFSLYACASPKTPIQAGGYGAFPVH
Compound,IC50 (B-Raf),IC50 [1],"turbidity threshold (L, M, H) 7.4 [2]","turbidity threshold (L, M, H) 4.5 [2]","turbidity threshold (L, M, H) 6.8 [2]","turbidity threshold (L, M, H) 1.4 [2]"
"CCCS(=O)(=O)Nc1ccc(F)c(C(=O)c2c[nH]c3ncc(-c4cnn(CCN5CCOCC5)c4)cc23)c1F [P-2177, Propane-1-sulfonic acid (2,4-difluoro-3-{5-[1-(2-morpholin-4-yl-ethyl)-1H-pyrazol-4-yl]-1H-pyrrolo[2,3-b]pyridine-3-carbonyl}-phenyl)-amide]",< 10 nM,< 100 nM,L (low solubility if the threshold concentration is <31.3 04),M (moderate solubility if the threshold concentration is 31.3 μM to 250 μM),L (low solubility if the threshold concentration is <31.3 04),H (high solubility if the threshold concentration is >250 μM)
"CCCS(=O)(=O)Nc1ccc(F)c(C(=O)c2c[nH]c3ncc(-c4ccc(OCCCN(C)C)nc4)cc23)c1F [P-2178, Propane-1-sulfonic acid (3-{5-[6-(3-dimethylamino-propoxy)-pyridin-3-yl]-1H-pyrrolo[2,3-b]pyridine-3-carbonyl}-2,4-difluoro-phenyl)-amide]",< 10 nM,< 100 nM,L (low solubility if the threshold concentration is <31.3 04),M (moderate solubility if the threshold concentration is 31.3 μM to 250 μM),L (low solubility if the threshold concentration is <31.3 04),H (high solubility if the threshold concentration is >250 μM)
"CCCS(=O)(=O)Nc1ccc(F)c(C(=O)c2c[nH]c3ncc(-c4cnc(C)nc4)cc23)c1F [P-2211, Propane-1-sulfonic acid {2,4-difluoro-3-[5-(2-methyl-pyrimidin-5-yl)-1H-pyrrolo[2,3-b]pyridine-3-carbonyl]-phenyl}-amide]",< 10 nM,< 1000 nM,M (moderate solubility if the threshold concentration is 31.3 μM to 250 μM),M (moderate solubility if the threshold concentration is 31.3 μM to 250 μM),M (moderate solubility if the threshold concentration is 31.3 μM to 250 μM),M (moderate solubility if the threshold concentration is 31.3 μM to 250 μM)
"CCCS(=O)(=O)Nc1ccc(F)c(C(=O)c2c[nH]c3ncc(-c4ccc(OCCN5CCCC5)nc4)cc23)c1F [P-2233, Propane-1-sulfonic acid (2,4-difluoro-3-{5-[6-(2-pyrrolidin-1-yl-ethoxy)-pyridin-3-yl]-1H-pyrrolo[2,3-b]pyridine-3-carbonyl}-phenyl)-amide]",< 10 nM,< 100 nM,M (moderate solubility if the threshold concentration is 31.3 μM to 250 μM),M (moderate solubility if the threshold concentration is 31.3 μM to 250 μM),L (low solubility if the threshold concentration is <31.3 04),L (low solubility if the threshold concentration is <31.3 04)
"N#Cc1cnc2[nH]cc(C(=O)c3c(F)ccc(NS(=O)(=O)c4ccccc4F)c3F)c2c1 [P-2011, N-[3-(5-Cyano-1H-pyrrolo[2,3-b]pyridine-3-carbonyl)-2,4-difluoro-phenyl]-2-fluoro-benzenesulfonamide]",< 100 nM,< 1000 nM,M (moderate solubility if the threshold concentration is 31.3 μM to 250 μM),M (moderate solubility if the threshold concentration is 31.3 μM to 250 μM),M (moderate solubility if the threshold concentration is 31.3 μM to 250 μM),M (moderate solubility if the threshold concentration is 31.3 μM to 250 μM)
"COc1ncc(-c2cnc3[nH]cc(C(=O)c4c(F)ccc(NS(=O)(=O)c5ccccc5F)c4F)c3c2)cn1 [P-2041, N-{2,4-Difluoro-3-[5-(2-methoxy-pyrimidin-5-yl)-1H-pyrrolo[2,3-b]pyridine-3-carbonyl]-phenyl}-2-fluoro-benzenesulfonamide]",< 10 nM,< 1000 nM,L (low solubility if the threshold concentration is <31.3 04),L (low solubility if the threshold concentration is <31.3 04),L (low solubility if the threshold concentration is <31.3 04),L (low solubility if the threshold concentration is <31.3 04)
"CCCS(=O)(=O)Nc1ccc(F)c(C(=O)c2c[nH]c3ncc(-c4cnc(SC)nc4)cc23)c1F [P-2189, Propane-1-sulfonic acid {2,4-difluoro-3-[5-(2-methylsulfanyl-pyrimidin-5-yl)-1H-pyrrolo[2,3-b]pyridine-3-carbonyl]-phenyl}-amide]",< 10 nM,< 1000 nM,L (low solubility if the threshold concentration is <31.3 04),L (low solubility if the threshold concentration is <31.3 04),L (low solubility if the threshold concentration is <31.3 04),L (low solubility if the threshold concentration is <31.3 04)
"CCCS(=O)(=O)Nc1ccc(F)c(C(=O)c2c[nH]c3ncc(-c4ccc(OCCCN5CCOCC5)nc4)cc23)c1F [P-2236, Propane-1-sulfonic acid (2,4-difluoro-3-{5-[6-(3-morpholin-4-yl-propoxy)-pyridin-3-yl]-1H-pyrrolo[2,3-b]pyridine-3-carbonyl}-phenyl)-amide]",< 10 nM,< 100 nM,L (low solubility if the threshold concentration is <31.3 04),M (moderate solubility if the threshold concentration is 31.3 μM to 250 μM),L (low solubility if the threshold concentration is <31.3 04),M (moderate solubility if the threshold concentration is 31.3 μM to 250 μM)
"O=C(c1c(F)ccc(NS(=O)(=O)c2cccc(F)c2)c1F)c1c[nH]c2nccc(Cl)c12 [P-2019, N-[3-(4-Chloro-1H-pyrrolo[2,3-b]pyridine-3-carbonyl)-2,4-difluoro-phenyl]-3-fluoro-benzenesulfonamide]",< 10 nM,< 5000 nM,M (moderate solubility if the threshold concentration is 31.3 μM to 250 μM),M (moderate solubility if the threshold concentration is 31.3 μM to 250 μM),M (moderate solubility if the threshold concentration is 31.3 μM to 250 μM),L (low solubility if the threshold concentration is <31.3 04)
"N#Cc1cnc2[nH]cc(C(=O)c3cccc(NS(=O)(=O)c4cc(F)ccc4F)c3F)c2c1 [P-2052, N-[3-(5-Cyano-1H-pyrrolo[2,3-b]pyridine-3-carbonyl)-2-fluoro-phenyl]-2,5-difluoro-benzenesulfonamide]",< 100 nM,< 1000 nM,M (moderate solubility if the threshold concentration is 31.3 μM to 250 μM),L (low solubility if the threshold concentration is <31.3 04),M (moderate solubility if the threshold concentration is 31.3 μM to 250 μM),L (low solubility if the threshold concentration is <31.3 04)
